US7700717B2, “Photo-active backbone cyclized somatostatin analogs for photodynamic therapy and imaging” (DeveloGen Israel Ltd., priority 2002, dated 2010)

Key:
[1] = tested on: subcutaneously implanted H69 human lung cancer; experiment: Ex vivo biodistribution by fiber-optic spectrofluorimetry (FOS) in tissues of mice bearing H69 tumors; details: for Fluorescence intensity (a.u.), Kidney / Fluorescence intensity (a.u.), Liver / Fluorescence intensity (a.u.), Lung / Fluorescence intensity (a.u.), Pancreas / Fluorescence intensity (a.u.), Skin / Fluorescence intensity (a.u.), Spleen / Fluorescence intensity (a.u.), Tumor: ex vivo, 24 hours after i.v. administration, FOS
Description: An argon ion laser (Melles Griot, 43 series) was coupled to a spectrofluorophotometer (Shimadzu, model RF-5301PC) using a bifurcated fiber bundle (Oriel, Stratford, Conn., model 77533). Laser light (488 nm) was passed via one leg of the fiber bundle, the common end tip of the bundle was fixed at a distance of 1 mm from a tissue sample, while the end tip of the second leg was mounted in front of the entrance slit of the spectrofluorophotometer. Laser irradiation from the fiber was set to 5 mW, as measured with a laser power meter (Laserstar, Ophir, Israel). An average of three recordings was used for each data point.
For control, one mouse was injected with fluorescein.
Fluorescence measurements were performed: • 1. […] Ex vivo 24 hours post injection using FOS. • 3.

hSST-R2 = target: T1, hSST-R2 (Homo sapiens, UniProt P30874); experiment: Inhibition of 125I-Tyr11-SRIF (SRIF-14) binding to membranes of CHO cells expressing cloned human SST-R2; details: Table 2; affinity for hSST-R2, cloned human receptor in CHO cells
T1 construct: expressed in transfected cells
Procedure: The SST analogs were tested for their potency in inhibition of the binding of ^125I-Tyr^11-SRIF (based on the method described by Raynor et. al., Molecular Pharmacology 43: 838, 1993) to membrane preparations expressing transmembrane SST receptors (SST-R1, 2, 3, 4 or 5). The receptor preparations used for these tests were either from the cloned human receptors selectively and stably expressed in Chinese Hamster Ovary (CHO) cells or from cell lines naturally expressing the SST-Rs. Typically, cell membranes were homogenized in Tris buffer in the presence of protease inhibitors and incubated for 30-40 minutes with ^125I-Tyr^11-SRIF with different concentrations of the tested sample. The binding reactions were filtered, the filters were washed and the bound radioactivity was counted in […] after addition of scintillation solution. Non specific binding was defined as the radioactivity remaining bound in the presence of 1 μM unlabeled SRIF-14.
The receptor membrane preparations used for these tests were from the cloned human receptors selectively and stably expressed in CHO cells and the radiolabelled analog used was (3-[^125]tyrosyl^11)SRIF-14. Table 2 above describes the results of the binding assays of selected analogs to the human cloned SST-R2.
The compounds were tested at a concentration of 10 nM, for SRIF-14 displacement on hSST-R2 expressed cells.

[2] = tested on: subcutaneously implanted H69 human lung cancer; details: mouse, iv
Procedure: Balb/c nude mice xenografts inoculated subcutaneously with the human small cell lung cancer cell line, H69.
Hundred μl of each agent (1 mM stock) were dissolved in 0.5 ml of saline and injected intravenously. For control, one mouse was injected with fluorescein.
In vivo during 24 hours after agent administrations using point (˜1 mm^2 area) measurements by fiber-optic spectroscopic system (FOS). • 2. Ex vivo 24 hours post injection using FOS. • 3.

hSST-R4 = hSST-R4 (Homo sapiens, UniProt P31391); details: cited from earlier work
SST-R2 and SST-R5 = details: cited from earlier work

Chain of hSST-R4 (P31391 whole entry): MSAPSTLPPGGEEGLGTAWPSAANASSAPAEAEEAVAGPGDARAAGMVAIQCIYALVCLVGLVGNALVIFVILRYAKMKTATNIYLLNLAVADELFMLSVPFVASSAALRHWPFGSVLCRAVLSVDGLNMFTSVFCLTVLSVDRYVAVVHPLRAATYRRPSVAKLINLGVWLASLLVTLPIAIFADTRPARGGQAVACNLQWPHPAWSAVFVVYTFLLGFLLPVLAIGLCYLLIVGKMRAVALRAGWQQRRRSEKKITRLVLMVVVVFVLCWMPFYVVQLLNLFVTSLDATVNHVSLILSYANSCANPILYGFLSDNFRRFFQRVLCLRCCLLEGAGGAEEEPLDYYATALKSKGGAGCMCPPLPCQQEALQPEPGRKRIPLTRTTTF
T1 sequence (P30874 whole entry): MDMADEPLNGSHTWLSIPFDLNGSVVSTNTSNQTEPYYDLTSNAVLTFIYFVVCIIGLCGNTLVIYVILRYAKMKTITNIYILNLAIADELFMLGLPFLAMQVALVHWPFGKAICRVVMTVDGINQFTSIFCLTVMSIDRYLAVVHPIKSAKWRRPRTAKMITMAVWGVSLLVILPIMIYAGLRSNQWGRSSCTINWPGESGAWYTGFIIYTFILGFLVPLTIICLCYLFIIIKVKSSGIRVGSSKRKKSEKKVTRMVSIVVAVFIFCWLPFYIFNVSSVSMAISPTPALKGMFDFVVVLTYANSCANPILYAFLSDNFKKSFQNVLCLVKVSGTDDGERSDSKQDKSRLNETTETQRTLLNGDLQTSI

Row | Molecule | Fluorescence intensity (a.u.), Kidney [1] | Fluorescence intensity (a.u.), Liver [1] | Fluorescence intensity (a.u.), Lung [1] | Fluorescence intensity (a.u.), Pancreas [1] | Fluorescence intensity (a.u.), Skin [1] | Fluorescence intensity (a.u.), Spleen [1] | Fluorescence intensity (a.u.), Tumor [1] | IC50 (hSST-R2) | fluorescence in normal organs in ex vivo spectral images [2] | tumor fluorescence in ex vivo spectral images [2] | tissue accumulation / specificity to the tumor in words ([1]; mouse, in vivo) | affinity to hSST-R4 (hSST-R4) | SST receptor subtype selectivity (SST-R2 and SST-R5)
1 | C[C@@H](O)[C@@H]1NC(=O)[C@H](CCCCN)NC(=O)[C@@H](Cc2c[nH]c3ccccc23)NC(=O)[C@H](Cc2c[nH]c3ccccc23)NC(=O)[C@H](Cc2ccccc2)NC(=O)CN(C(=O)[C@@H](Cc2ccccc2)NC(=O)CCCCNC(=S)Nc2ccc3c(c2)C(=O)OC32c3ccc(O)cc3Oc3cc(O)ccc32)CCSSCCN(CC(N)=O)C(=O)[C@H](Cc2ccccc2)NC1=O [Compound 70, 5-(aminothionyl)fluorescein-aminopentanoyl-DPhe-GlyS2*-Phe-Trp-DTrp-Lys-Thr-Phe-GlyS2*-NH2] | 18 ± 3 a.u. | 5 ± 1 a.u. | 27 ± 4 a.u. | 10 ± 2 a.u. | 116 ± 17 a.u. | 2 ± 0.3 a.u. | 122 ± 18 a.u. | – | – | – | – | – | –
2 | C[C@@H](O)[C@@H]1NC(=O)[C@H](CCCCN)NC(=O)[C@@H](Cc2c[nH]c3ccccc23)NC(=O)[C@H](Cc2c[nH]c3ccccc23)NC(=O)[C@H](Cc2ccccc2)NC(=O)[C@@H](NC(=O)[C@@H](Cc2ccccc2)NC(=O)CCCNC(=S)Nc2ccc3c(c2)C(=O)OC32c3ccc(O)cc3Oc3cc(O)ccc32)CSSCCN(CC(N)=O)C(=O)[C@H](Cc2ccccc2)NC1=O [Compound 86, 5-(aminothionyl)fluorescein-GABA-DPhe-Cys*-Phe-Trp-DTrp-Lys-Thr-Phe-GlyS2*-NH2] | 23 ± 5 a.u. | 13 ± 3 a.u. | 70 ± 14 a.u. | 22 ± 6 a.u. | 65 ± 13 a.u. | 7 ± 1.4 a.u. | 626 ± 55 a.u. | 1.7 nM | no fluorescence in normal organs | high and selective tumor fluorescence | particularly high specificity to the tumor | – | –
3 | C[C@@H](O)[C@@H]1NC(=O)[C@H](CCCCN)NC(=O)[C@@H](Cc2c[nH]c3ccccc23)NC(=O)[C@H](Cc2c[nH]c3ccccc23)NC(=O)[C@H](Cc2ccccc2)NC(=O)CN(C(=O)[C@@H](Cc2ccccc2)NC(=O)CCNC(=S)Nc2ccc3c(c2)C(=O)OC32c3ccc(O)cc3Oc3cc(O)ccc32)CCSSCCN(CC(N)=O)C(=O)[C@H](Cc2ccccc2)NC1=O [Compound 62, 5-(aminothionyl)fluorescein-βAla-DPhe-GlyS2*-Phe-Trp-DTrp-Lys-Thr-Phe-GlyS2*-NH2] | 32 ± 5 a.u. | 17 ± 3 a.u. | 37 ± 6 a.u. | – | 120 ± 18 a.u. | 4 ± 1 a.u. | 106 ± 16 a.u. | – | no (lungs and kidney) or little (dermis) fluorescence | high and selective fluorescence | – | – | –
4 | GABA*-Phe-Trp-DTrp-Lys-Thr-Phe-GlyC3*-NH2 (XFWWKTFG; not fully specified; backbone cyclized; GABA; C-terminal amide) [PTR 3173] | – | – | – | – | – | – | – | – | – | – | – | moderate affinity | selective for SST-R2 and SST-R5
5 | C[C@@H](O)[C@@H]1NC(=O)[C@H](CCCCN)NC(=O)[C@@H](Cc2c[nH]c3ccccc23)NC(=O)[C@H](Cc2c[nH]c3ccccc23)NC(=O)[C@H](Cc2ccccc2)NC(=O)CN(C(=O)CCCNC(=O)c2ccc3c(c2)C(=O)OC32c3ccc(O)cc3Oc3cc(O)ccc32)CCSSCCN(CC(N)=O)C(=O)[C@H](Cc2ccccc2)NC1=O [Compound 48, 5- and 6-carboxyfluorescein-GABA-GlyS2*-Phe-Trp-DTrp-Lys-Thr-Phe-GlyS2*-NH2] | 15 ± 6 a.u. | 10 ± 5 a.u. | 25 ± 8 a.u. | 16 ± 5 a.u. | 90 ± 20 a.u. | 7 ± 2 a.u. | 50 ± 20 a.u. | – | – | – | – | – | –
6 | C[C@@H](O)[C@@H]1NC(=O)[C@H](CCCCN)NC(=O)[C@@H](Cc2c[nH]c3ccccc23)NC(=O)[C@H](Cc2c[nH]c3ccccc23)NC(=O)[C@H](Cc2ccccc2)NC(=O)CN(C(=O)[C@@H](Cc2ccccc2)NC(=O)CCNC(=O)c2ccc3c(c2)C(=O)OC32c3ccc(O)cc3Oc3cc(O)ccc32)CCSSCCN(CC(N)=O)C(=O)[C@H](Cc2ccccc2)NC1=O [Compound 64, 5- and 6-carboxyfluorescein-βAla-DPhe-GlyS2*-Phe-Trp-DTrp-Lys-Thr-Phe-GlyS2*-NH2] | 20 ± 3 a.u. | 12 ± 2 a.u. | 40 ± 6 a.u. | – | 120 ± 18 a.u. | 4 ± 1 a.u. | 110 ± 17 a.u. | – | – | – | – | – | –
